Test results from patent publication US10676465B2, “GLP-1 receptor agonists and uses thereof” (Pfizer Inc., priority 2018, dated 2020).
pEC50: −log10 of the molar value. Read-outs that look alike come from different tables or passages of the source.

Legend:
[1] = molecular target: human GLP-1R (Homo sapiens, UniProt P43220, G168S); assay: CHO GLP-1R Clone H6 - Assay 1 (HTRF cAMP agonist assay); assay type: cell-based; settings: for pEC50: CHO GLP-1R Clone H6, cAMP HTRF, geometric mean; for Emax: CHO GLP-1R Clone H6, arithmetic mean, relative to saturating GLP-1 (1 μM)
[2] = molecular target: human GLP-1R (Homo sapiens (Human), UniProt P43220, L260F); assay: CHO GLP-1R Clone C6 - Assay 2 (HTRF cAMP agonist assay, low receptor density); settings: for Emax: read-out: Assay 2 Emax (%), CHO GLP-1R Clone C6 (low receptor density), arithmetic mean, relative to saturating GLP-1 (1 μM); for EC50: Assay 2 EC50 (nM)
Protocol: CHO GLP-1R Clone C6—Assay 2
GLP-1R-mediated agonist activity was determined with a cell-based functional assay utilizing an HTRF (Homogeneous Time-Resolved Fluorescence) cAMP detection kit (cAMP HI Range Assay Kit; Cis Bio cat #62AM6PEJ) that measures cAMP levels in the cell. The method is a competitive immunoassay between native cAMP produced by the cells and exogenous cAMP labeled with the dye d2. The tracer binding is visualized by a mAb anti-cAMP labeled with Cryptate. The specific signal (i.e. energy transfer) is inversely proportional to the concentration of cAMP in either a standard or an experimental sample.
The human GLP-1R coding sequence (NCBI Reference Sequence NP_002053.3, including naturally-occurring variant Leu260Phe) was subcloned into pcDNA5-FRT-TO and a clonal CHO cell line stably expressing a low receptor density was isolated using the Flp-In™ T-Rex™ System, as described by the manufacturer (ThermoFisher).
Cells were removed from cryopreservation, re-suspended in 40 mL of Dulbecco's Phosphate Buffered Saline (DPBS—Lonza Cat #17-512Q) and centrifuged at 800×g for 5 minutes at 22° C. The DPBS was aspirated, and the cell pellet was re-suspended in 10 mL of complete growth medium (DMEM:F12 1:1 Mixture with HEPES, L-Gln, 500 mL (DMEM/F12 Lonza Cat #12-719F), 10% heat inactivated fetal bovine serum (Gibco Cat #16140-071), 5 mL of 100× Pen-Strep (Gibco Cat #15140-122), 5 mL of 100×L-Glutamine (Gibco Cat #25030-081), 700 μg/mL Hygromycin (Invitrogen Cat #10687010) and 15 μg/mL Blasticidin (Gibco Cat # R21001). A 1 mL sample of the cell suspension in growth media was counted on a Becton Dickinson ViCell to determine cell viability and cell count per mL. The remaining cell suspension was then adjusted with growth media to deliver 1600 viable cells per well using a Matrix Combi Multidrop reagent dispenser, and the cells were dispensed into a white 384 well tissue culture treated assay plate (Corning 3570). The assay plate was then incubated for 48 hours at 37° C. in a humidified environment (95% O2, 5% CO2)
Varying concentrations of each compound to be tested (in DMSO) were diluted in assay buffer [HBSS with Calcium/Magnesium (Lonza/BioWhittaker cat #10-527F)/0.1% BSA (Sigma Aldrich cat # A7409-1L)/20 mM HEPES (Lonza/BioWhittaker cat #17-737E)] containing 100 μM 3-isobutyl-1-methylxanthin (IBMX; Sigma cat #15879). The final DMSO concentration in the compound/assay buffer mixture is 1%.
After 48 hours, the growth media was removed from the assay plate wells, and the cells were treated with 20 μL of the serially diluted compound in assay buffer for 30 minutes at 37° C. in a humidified environment (95% O2, 5% CO2). Following the 30 minute incubation, 10 μL of labeled d2 cAMP and 10 μL of anti-cAMP antibody (both diluted 1:20 in cell lysis buffer; as described in the manufacturer's assay protocol) were added to each well of the assay plate. The plates were then incubated at room temperature and after 60 minutes, changes in the HTRF signal were read with an Envision 2104 multi-label plate reader using excitation of 330 nm and emissions of 615 and 665 nm. Raw data were converted to nM cAMP by interpolation from a cAMP standard curve (as described in the manufacturer's assay protocol) and the percent effect was determined relative to a saturating concentration of the full agonist GLP-1 (1 μM) included on each plate. EC50 determinations were made from agonist dose response curves analyzed with a curve fitting program using a 4-parameter logistic dose response equation.

[3] = read-out: Assay 2 EC50, CHO GLP-1R Clone C6 (low receptor density), cAMP HTRF, geometric mean
[4] = CHO GLP-1R Clone C6 (low receptor density), cAMP HTRF, geometric mean

human GLP-1R (Homo sapiens, UniProt P43220, G168S), sequence (P43220 24-463 G168S limits assumed): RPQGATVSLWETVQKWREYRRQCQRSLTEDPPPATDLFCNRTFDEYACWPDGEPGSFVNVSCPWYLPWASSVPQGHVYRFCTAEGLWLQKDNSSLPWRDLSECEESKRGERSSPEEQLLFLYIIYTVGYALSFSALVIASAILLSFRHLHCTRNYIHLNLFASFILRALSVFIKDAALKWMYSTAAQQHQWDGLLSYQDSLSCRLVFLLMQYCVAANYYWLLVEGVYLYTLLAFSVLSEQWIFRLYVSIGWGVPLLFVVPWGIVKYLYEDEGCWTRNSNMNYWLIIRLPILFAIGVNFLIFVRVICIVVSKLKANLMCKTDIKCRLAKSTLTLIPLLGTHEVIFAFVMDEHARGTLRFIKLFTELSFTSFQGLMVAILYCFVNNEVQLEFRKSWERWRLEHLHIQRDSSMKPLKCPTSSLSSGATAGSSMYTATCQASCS
human GLP-1R (Homo sapiens (Human), UniProt P43220, L260F), sequence (P43220 24-463 L260F): as the sequence (P43220 24-463 G168S limits assumed) above, with S145G, L237F counted along it

SMILES	pEC50 [1]	Emax [1] [%]	pEC50 [2, 3]	Emax [2] [%]	EC50 [2, 4] [nM]	pEC50 ([2]; EC50 in Assay 2, CHO GLP-1R Clone C6, cAMP, geometric mean of replicates)
CC1(c2ccc(Cl)cc2F)Oc2cccc(C3CCN(Cc4nc5ccc(C(=O)O)cc5n4CCO)CC3)c2O1 (stereo not drawn) [Example 75, 2-({4-[2-(4-chloro-2-fluorophenyl)-2-methyl-1,3-benzodioxol-4-yl]piperidin-1-yl}methyl)-1-(2-hydroxyethyl)-1H-benzimidazole-6-carboxylic acid]	7.19	82	6.00	71		
CC1(c2ccc(Cl)cc2F)Oc2cccc(C3CCN(Cc4nc5ccc(C(=O)O)cc5n4C4CCOC4)CC3)c2O1 (stereo not drawn) [Example 61, 2-({4-[2-(4-chloro-2-fluorophenyl)-2-methyl-1,3-benzodioxol-4-yl]piperidin-1-yl}methyl)-1-(tetrahydrofuran-3-yl)-1H-benzimidazole-6-carboxylic acid]	8.00	79	6.62	85		
CC1(c2ccc(Cl)cc2F)Oc2cccc(C3CCN(Cc4nc5ccc(C(=O)O)nc5n4Cc4cnco4)CC3)c2O1 (stereo not drawn) [Example 81, 2-({4-[2-(4-chloro-2-fluorophenyl)-2-methyl-1,3-benzodioxol-4-yl]piperidin-1-yl}methyl)-3-(1,3-oxazol-5-ylmethyl)-3H-imidazo[4,5-b]pyridine-5-carboxylic acid]	7.54	110	7.27	110		
Cn1cc(Cn2c(CN3CCC(c4cccc5c4OC(C)(c4ccc(Cl)cc4F)O5)CC3)nc3ccc(C(=O)O)cc32)nn1 (stereo not drawn) [Example 63, 2-({4-[2-(4-chloro-2-fluorophenyl)-2-methyl-1,3-benzodioxol-4-yl]piperidin-1-yl}methyl)-1-[(1-methyl-1H-1,2,3-triazol-4-yl)methyl]-1H-benzimidazole-6-carboxylic acid]	8.28	91	7.18	96		
COCCn1c(CN2CCN(c3cccc4c3OC(c3ccc(Cl)cc3F)O4)CC2)nc2ccc(C(=O)O)cc21 (single isomer, unassigned) [Example 1, 2-({4-[2-(4-Chloro-2-fluorophenyl)-1,3-benzodioxol-4-yl]piperazin-1-yl}methyl)-1-(2-methoxyethyl)-1H-benzimidazole-6-carboxylic Acid]	6.06	99			> 20000	
COCCn1c(CN2CCC(c3cccc4c3OC(C)(c3ccc(F)c(F)c3)O4)CC2)nc2ccc(C(=O)O)cc21 (stereo not drawn) [Example 41, 2-({4-[2-(3,4-difluorophenyl)-2-methyl-1,3-benzodioxol-4-yl]piperidin-1-yl}methyl)-1-(2-methoxyethyl)-1H-benzimidazole-6-carboxylic acid]	7.04	78		74	2000	
COCCn1c(C2CC23CCN(c2cccc4c2OC(C)(c2ccc(Cl)cc2F)O4)CC3)nc2ccc(C(=O)O)cc21 (single isomer, unassigned) [Example 25, 2-{6-[2-(4-chloro-2-fluorophenyl)-2-methyl-1,3-benzodioxol-4-yl]-6-azaspiro[2.5]oct-1-yl}-1-(2-methoxyethyl)-1H-benzimidazole-6-carboxylic acid]	< 4.70				> 20000	
COCCn1c(CN2CCC(c3cccc4c3OC(C)(c3ccc(Cl)cn3)O4)CC2)nc2ccc(C(=O)O)cc21 (stereo not drawn) [Example 91, ammonium 2-({4-[2-(5-chloropyridin-2-yl)-2-methyl-1,3-benzodioxol-4-yl]piperidin-1-yl}methyl)-1-(2-methoxyethyl)-1H-benzimidazole-6-carboxylate]	4.85	100	< 4.70			
CC1(c2ccc(Cl)cc2F)Oc2cccc(C3CCN(Cc4nc5ccc(C(=O)O)cc5n4CCn4ccnc4)CC3)c2O1 (stereo not drawn) [Example 50, 2-({4-[2-(4-chloro-2-fluorophenyl)-2-methyl-1,3-benzodioxol-4-yl]piperidin-1-yl}methyl)-1-[2-(1H-imidazol-1-yl)ethyl]-1H-benzimidazole-6-carboxylic acid]	7.92	87	6.85	92		
C[C@@]1(c2ccc(Cl)cc2F)Oc2cccc(C3CCN(Cc4nc5ccc(C(=O)O)cc5n4C[C@@H]4CCO4)CC3)c2O1 [Example 6, Ammonium 2-({4-[(2R)-2-(4-chloro-2-fluorophenyl)-2-methyl-1,3-benzodioxol-4-yl]piperidin-1-yl}methyl)-1-[(2S)-oxetan-2-ylmethyl]-1H-benzimidazole-6-carboxylate]	6.85	89		89	2400	5.62
CC1(c2ccc(Cl)cc2F)Oc2cccc(C3CCN(Cc4nc5ccc(C(=O)O)cc5n4CC4(O)CCC4)CC3)c2O1 (stereo not drawn) [Example 72, 2-({4-[2-(4-chloro-2-fluorophenyl)-2-methyl-1,3-benzodioxol-4-yl]piperidin-1-yl}methyl)-1-[(1-hydroxycyclobutyl)methyl]-1H-benzimidazole-6-carboxylic acid]	7.85	76	6.51	80		
CC1(c2ccc(Cl)cc2F)Oc2cccc(C3CCN(Cc4nc5ccc(C(=O)O)cc5n4CC4CCOC4)CC3)c2O1 (stereo not drawn) [Example 56, 2-({4-[2-(4-chloro-2-fluorophenyl)-2-methyl-1,3-benzodioxol-4-yl]piperidin-1-yl}methyl)-1-(tetrahydrofuran-3-ylmethyl)-1H-benzimidazole-6-carboxylic acid]	8.92	87	7.96	81		
CC1(c2ccc(Cl)cc2F)Oc2cccc(C3CCN(Cc4nc5ccc(C(=O)O)cc5n4Cc4cocn4)CC3)c2O1 (stereo not drawn) [Example 58, 2-({4-[2-(4-chloro-2-fluorophenyl)-2-methyl-1,3-benzodioxol-4-yl]piperidin-1-yl}methyl)-1-(1,3-oxazol-4-ylmethyl)-1H-benzimidazole-6-carboxylic acid]	8.40	98	7.64	88		
CN(C)CCn1c(CN2CCC(c3cccc4c3OC(C)(c3ccc(Cl)cc3F)O4)CC2)nc2ccc(C(=O)O)cc21 (stereo not drawn) [Example 12, 2-({4-[2-(4-Chloro-2-fluorophenyl)-2-methyl-1,3-benzodioxol-4-yl]piperidin-1-yl}methyl)-1-[2-(dimethylamino)ethyl]-1H-benzimidazole-6-carboxylic Acid]	7.54	83		92	690	
CCn1nncc1Cn1c(CN2CCC(c3cccc4c3OC(C)(c3ccc(Cl)cc3F)O4)CC2)nc2ccc(C(=O)O)cc21 (stereo not drawn) [Example 76, 2-({4-[2-(4-chloro-2-fluorophenyl)-2-methyl-1,3-benzodioxol-4-yl]piperidin-1-yl}methyl)-1-[(1-ethyl-1H-1,2,3-triazol-5-yl)methyl]-1H-benzimidazole-6-carboxylic acid]	9.11	93	8.12	100		
CC1(c2ccc(C#N)cc2F)Oc2cccc(C3CCN(Cc4nc5ccc(C(=O)O)cc5n4Cc4ncco4)CC3)c2O1 (stereo not drawn) [Example 98, ammonium 2-({4-[2-(4-cyano-2-fluorophenyl)-2-methyl-1,3-benzodioxol-4-yl]piperidin-1-yl}methyl)-1-(1,3-oxazol-2-ylmethyl)-1H-benzimidazole-6-carboxylate]	7.30	97	6.36	95		
CC1(c2ccc(Cl)cc2F)Oc2cccc(C3CCN(Cc4nc5ccc(C(=O)O)cc5n4Cc4cnco4)CC3)c2O1 (stereo not drawn) [Example 69, 2-({4-[2-(4-chloro-2-fluorophenyl)-2-methyl-1,3-benzodioxol-4-yl]piperidin-1-yl}methyl)-1-(1,3-oxazol-5-ylmethyl)-1H-benzimidazole-6-carboxylic acid]	8.00	100	8.08	98		
CN(C)S(=O)(=O)CCn1c(CN2CCC(c3cccc4c3OC(C)(c3ccc(Cl)cc3F)O4)CC2)nc2ccc(C(=O)O)cc21 (stereo not drawn) [Example 47, 2-({4-[2-(4-chloro-2-fluorophenyl)-2-methyl-1,3-benzodioxol-4-yl]piperidin-1-yl}methyl)-1-[2-(dimethylsulfamoyl)ethyl]-1H-benzimidazole-6-carboxylic acid]	7.38	75	5.85	76		
Cn1cnc(Cn2c(CN3CCC(c4cccc5c4OC(C)(c4ccc(Cl)cc4F)O5)CC3)nc3ccc(C(=O)O)cc32)c1 (stereo not drawn) [Example 77, 2-({4-[2-(4-chloro-2-fluorophenyl)-2-methyl-1,3-benzodioxol-4-yl]piperidin-1-yl}methyl)-1-[(1-methyl-1H-imidazol-4-yl)methyl]-1H-benzimidazole-6-carboxylic acid]	7.28	89	5.77	92		
CC1(c2ccc(Cl)cc2F)Oc2cccc(C3CCN(Cc4nc5ccc(C(=O)O)cc5n4CCCn4cncn4)CC3)c2O1 (stereo not drawn) [Example 54, 2-({4-[2-(4-chloro-2-fluorophenyl)-2-methyl-1,3-benzodioxol-4-yl]piperidin-1-yl}methyl)-1-[3-(1H-1,2,4-triazol-1-yl)propyl]-1H-benzimidazole-6-carboxylic acid]	7.74	82	6.80	64		
CC1(c2ccc(Cl)cc2F)Oc2cccc(C3CCN(Cc4nc5ccc(C(=O)O)cc5n4C[C@@H]4CCCO4)CC3)c2O1 (stereo partly drawn) [Example 79, 2-({4-[2-(4-chloro-2-fluorophenyl)-2-methyl-1,3-benzodioxol-4-yl]piperidin-1-yl}methyl)-1-[(2S)-tetrahydrofuran-2-ylmethyl]-1H-benzimidazole-6-carboxylic acid]	8.85	85	7.68	85		
